Among the data in publication PMC4159592 (Chembiochem, 2014) are Kd values, retold here.

For the experiment, the target named is CYP126 (Mycobacterium tuberculosis, UniProt P9WPN9). Nature of the experiment: biochemical. It counts as binding.
CYP126, sequence (P9WPN9 whole entry): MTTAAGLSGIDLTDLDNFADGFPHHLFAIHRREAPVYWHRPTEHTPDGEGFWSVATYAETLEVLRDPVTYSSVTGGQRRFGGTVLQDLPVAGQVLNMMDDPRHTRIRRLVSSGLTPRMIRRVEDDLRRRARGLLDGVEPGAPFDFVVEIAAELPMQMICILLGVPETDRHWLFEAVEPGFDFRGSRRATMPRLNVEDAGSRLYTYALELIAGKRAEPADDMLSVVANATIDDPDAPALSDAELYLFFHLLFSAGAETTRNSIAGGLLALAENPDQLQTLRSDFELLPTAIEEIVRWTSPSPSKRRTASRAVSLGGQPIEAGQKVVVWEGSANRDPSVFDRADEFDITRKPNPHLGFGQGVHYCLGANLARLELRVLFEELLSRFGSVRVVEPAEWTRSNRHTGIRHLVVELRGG

Take `Oc1c(Cl)c(Cl)c(Cl)c(Cl)c1Cl` [TB23, pentachlorophenol]: the Kd came to 150 µM.
